Consider four molecules from PMC11876601 (Molecular Systems Biology, 2025).

Where two headings read alike, the source gives them in different places.

The test system of one experiment is Q6ZSR9. To be noted: cited from earlier work.
For another experiment, the system named is AsPC-1. The experiment in a line: cells. Also on record: ATPlite luminescence viability of PDAC cell lines, 11-dose single-agent curves, 4-parameter fit. To be noted: Homo sapiens, ASPC1, 72 h, read-out: EC50 [nM]. The method in brief: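 cells (1000 to 5000 per well) seeded 24 h before drug addition in a combination screen at 0.2% final DMSO. Controls were drug-free wells (negative) and 5 µM staurosporine (positive).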

For experiment [1], the system named is p-sites in DNA-damaged AsPC-1 cells. Kind of experiment: decryptM dose-resolved phosphoproteomics of ATRi in GEM-pre-treated cells. In kind it is cell-based, human. Conditions: for EC50: Homo sapiens, ASPC1; for PTM response (norm. to 1 µM GEM): source data 4B (p-site not named). The method, then:
Cell culture medium was replaced 24 h after seeding. […] For time point 0, AsPC-1 cells were treated with a vehicle and lysed immediately. The final DMSO concentration in all experiments was 0.2%.
Briefly, cells were washed twice with PBS and lysed in SDS lysis buffer (2% SDS in 40 mM Tris-HCl, pH 7.6), followed by sonication for 10 min (30 s on/30 s off) using a Bioruptor (Diagenode). For DNA hydrolysis, samples were boiled at 95 °C for 10 min and incubated with 2% trifluoroacetic acid (TFA) for 1 min, before the reaction was quenched using 4% N-methylmorpholine. Lysate was cleared by centrifugation at 11,000 × g for 5 min and protein concentration was determined using the Pierce BCA Protein Assay Kit (Thermo Scientific).
Using 70% ethanol, samples were then precipitated on beads, followed by washing thrice with 80% ethanol and once with 100% acetonitrile. Subsequently, proteins were reduced and alkylated using 10 mM TCEP, 50 mM chloroacetamide, and 2 mM CaCl2 in 100 mM EPPS/NaOH, pH 8.5 for 1 h at 37 °C, followed by tryptic digestion at 37 °C for 16 h. Peptides were acidified with 1% TFA and desalted on Chromabond HLB plates (30 µm particle size, 10 mg capacity, Machery-Nagel), using 0.1% TFA for equilibration and sample loading, and 0.1% TFA in 70% acetonitrile for peptide elution. Recovered peptides were freeze-dried by vacuum-centrifugation and stored at −20 °C.
Depending on the experiment, samples were either labeled with TMT-11plex (decryptM), TMT-10plex (non-decryptM, quadruplicates), or TMTpro reagent (time-series; all Thermo Scientific). Therefore, dried peptides were reconstituted in 15 µl 100 mM EPPS, pH 8.5 and each treatment condition was labeled with one channel of the respective TMT reagent (5 µl of 25 µg/µl reagent, Appendix Tables S4–S6). The reaction was incubated for 1 h at 23 °C and subsequently quenched with 0.4% hydroxylamine. Then, samples were pooled, acidified with 1% formic acid, and freeze-dried by vacuum-centrifugation. Labeled peptide pools were desalted on C18 Sep-Pak cartridges (37–55 µm particle size, 50 mg capacity, Waters), using 0.1% formic acid as equilibration solvent, and 0.1% formic acid in 60% acetonitrile was used as elution solvent. Eluted peptides were freeze-dried and stored at −20 °C until further use.
Basic reversed-phase (bRP) fractionation of peptides was performed on a Vanquish HPLC (Thermo Scientific). In short, dried peptides were reconstituted in 200 µl 25 mM ammonium bicarbonate, pH 8.0 and directly injected onto a Waters BEH130 XBridge C18 column (3.5 µm, 4.6 × 250 mm). […] Using an automated fraction collector, 96 fractions were collected between min 7 and 55 after injection. Fractions were acidified with 1% formic acid and pooled to 48 fractions, before they were freeze-dried and stored at −20 °C.
Immobilized metal ion affinity chromatography (IMAC) enrichment of phosphorylated peptides was performed on the Bravo automated liquid handling platform using AssayMAP Fe(III)-NTA cartridges (Agilent). In brief, the 48 dried peptide fractions were reconstituted in 0.1% TFA in 80% acetonitrile and further pooled to 12 fractions (200 µl final volume per well). The phosphopeptide enrichment protocol embedded in the Agilent AssayMAP Bravo Protein Sample Prep Workbench v2.0 software was run. Thereby, the cartridges were first primed with 150 μl 0.1% TFA in acetonitrile at 300 μl/min, and equilibrated with 150 μl 0.1% TFA in 80% acetonitrile at 10 μl/min. Then, pooled fractions were loaded at 5 µl/min and further washed three times with 150 μl 0.1% TFA in 80% acetonitrile at 50 μl/min. Enriched peptides were eluted with 60 μl 1% ammonium hydroxide at 5 μl/min.

[2] abbreviates: Q6ZSR9, 5 cell line mix lysate, Kinobeads ε, ref Reinecke et al. (2023).

`COc1cc(N2CCC(N3CCN(C)CC3)CC2)ccc1Nc1ncc(Cl)c(Nc2ccccc2P(C)(C)=O)n1` [Brigatinib]: in the experiment with Q6ZSR9 (setting [2]), the EC50 was 296 nM and the pKDapp is 6.65. Moreover, the Kd at Q6ZSR9 (Q6ZSR9, 5 cell line mix lysate, Kinobeads ε, ref Reinecke et al. (2023), read-out: KDapp) is 225 nM. Further, the EC50 in the experiment with AsPC-1 came to 272 nM.

In the case of `CCN1CCN(Cc2ccc(Nc3ncc(F)c(-c4cc(F)c5nc(C)n(C(C)C)c5c4)n3)nc2)CC1` [Abemaciclib], the EC50 in the experiment on AsPC-1 is over 10000 nM.

`C[C@]12O[C@H](C[C@]1(O)CO)n1c3ccccc3c3c4c(c5c6ccccc6n2c5c31)CNC4=O` [Lestaurtinib]: the EC50 with Q6ZSR9 (Q6ZSR9, 4 cell line mix lysate, Kinobeads y, ref Klaeger et al. (2017)) was 105 nM.

`Nc1nn2cc(F)cnc2c1C(=O)Nc1cncc(F)c1N1CCC(C(=O)N2CCN(C3COC3)CC2)CC1` [Gartisertib]: the “Ratio TMT 9 (PTM response normalized to 1,000 nM GEM), AAAS S495” value in experiment [1] (1,000 nM GEM + 1 nM ATRi) stood at 1.01. Further, the “Ratio TMT 8 (PTM response normalized to 1,000 nM GEM), AAAS S495” value in experiment [1] (1,000 nM GEM + 3 nM ATRi) was 1.19. The “Ratio TMT 7 (PTM response normalized to 1,000 nM GEM), AAAS S495” value in experiment [1] (1,000 nM GEM + 10 nM ATRi) was 1.10. Moreover, the “Ratio TMT 6 (PTM response normalized to 1,000 nM GEM), AAAS S495” value in experiment [1] (1,000 nM GEM + 30 nM ATRi) came out at 1.01. The “Ratio TMT 5 (PTM response normalized to 1,000 nM GEM), AAAS S495” value in experiment [1] (1,000 nM GEM + 100 nM ATRi) turned out to be 0.97. In experiment [1] (1,000 nM GEM + 300 nM ATRi), the “Ratio TMT 4 (PTM response normalized to 1,000 nM GEM), AAAS S495” value was found to be 1.12. In addition, the “Ratio TMT 3 (PTM response normalized to 1,000 nM GEM), AAAS S495” value in experiment [1] (1,000 nM GEM + 1,000 nM ATRi) is reported as 1.11. Besides, the “Ratio TMT 2 (PTM response normalized to 1,000 nM GEM), AAAS S495” value in experiment [1] (1,000 nM GEM + 3,000 nM ATRi) was 1.00. Further, the “Ratio TMT 1 (PTM response normalized to 1,000 nM GEM), AAAS S495” value in experiment [1] (1,000 nM GEM + 10,000 nM ATRi) was found to be 1.09. The “Log2 PTM response (GEM+ATRi vs. GEM)” value is given as -1.6 in experiment [1] (AASDHPPT-pS258); -2 in experiment [1] (BRCA1-pS1239); -1.6 in experiment [1] (BRD8-pS621); -1.3 in experiment [1] (CDKN2AIP-pS198); -2.3 in experiment [1] (CHEK1-pS317); -1.9 in experiment [1] (EXO1-pS714). In addition, the “Log2 PTM response (GEM+ATRi vs. GEM)” value in experiment [1] (FANCD2-pS319) is -1; in experiment [1] (HDGF-pS103) it was -1.6; in experiment [1] (HMGA1-pS9) it was -2; in experiment [1] (HMGA1-pS36;S44), -0.9; in experiment [1] (HMGA1-pS44), -2.1; in experiment [1] (HTATSF1-pS481) it was -1.1. The “Log2 PTM response (GEM+ATRi vs. GEM)” value in experiment [1] (LRRC42-pS385) was -2.5; in experiment [1] (NBN-pS397), -1.3; in experiment [1] (NBN-pS615), -0.8; in experiment [1] (NSUN5-pS432), -2.2; in experiment [1] (PELP1-pS1033) it was -1; in experiment [1] (PHF14-pS294), -1.2. In addition, the “Log2 PTM response (GEM+ATRi vs. GEM)” value in experiment [1] (PNISR-pS706) is given as -1.9; in experiment [1] (PPM1G-pS201) it was -2.3; in experiment [1] (PPP6R3-pS825) it was -1; in experiment [1] (PSMD4-pS266) it was -1.2; in experiment [1] (RAD18-pS368) it was -2.8; in experiment [1] (RIF1-pS1873), -1.4. The “Log2 PTM response (GEM+ATRi vs. GEM)” value in experiment [1] (SNRPA-pS115) is -1; in experiment [1] (TCEA1-pS100;S97) it was -2.6; in experiment [1] (TCEB3-pS251), -1.6; in experiment [1] (THAP4-pS186), -1.3; in experiment [1] (TOPBP1-pS1504), -1.4; in experiment [1] (TSEN34-pS136) it was -1.3. For the same molecule, the “Log2 PTM response (GEM+ATRi vs. GEM)” value in experiment [1] (UHRF1-pS393) is given as -0.6; in experiment [1] (UIMC1-pS171) it was -1. In addition, the EC50 in experiment [1] (approximate, from density plot Fig. 4C (peer review file), read-out: EC50 of the majority of pSQ/pTQ sites) is about 10 nM; in experiment [1] (approximate, from density plot Fig. 4C (peer review file), read-out: pEC50 of the majority of pSQ/pTQ sites (converted)) it was about 10 nM; in experiment [1] (p-site dose-response in GEM-pre-treated cells, read-out: EC50, RALY S176), 1.91 nM; in experiment [1] (p-site dose-response in GEM-pre-treated cells, read-out: pEC50, RALY S176 (converted)), 1.91 nM; in experiment [1] (read-out: median EC50 across all drug-regulated pSQ/pTQ-sites), 21 nM. The “ATRi Regulation (Curve), RALY S176” value in experiment [1] (classified by CurveCurator) is recorded as “down”. In addition, the “Curve Log2 Fold Change, RALY S176” value in experiment [1] (fitted dose-response curve) is -1.45 log2. For the same molecule, the “PTM response (norm. to 1 µM GEM)” value in experiment [1] (1 µM GEM + ATRi 1 nM) is 1.13; in experiment [1] (1 µM GEM + ATRi 3 nM) it was 0.97; in experiment [1] (1 µM GEM + ATRi 10 nM) it was 0.75; in experiment [1] (1 µM GEM + ATRi 30 nM), 0.41; in experiment [1] (1 µM GEM + ATRi 100 nM) it was 0.29; in experiment [1] (1 µM GEM + ATRi 300 nM), 0.28. Besides, the “PTM response (norm. to 1 µM GEM)” value turned out to be 0.21 in experiment [1] (1 µM GEM + ATRi 1000 nM), 0.17 in experiment [1] (1 µM GEM + ATRi 3000 nM) and 0.19 in experiment [1] (1 µM GEM + ATRi 10000 nM).
